Results from the supplement of paper PMC10307832.

Legend:
Experiment in all cases: relative viability (nuclei count vs DMSO), 5 days (fraction); higher = more cells survive
NCI-H2023 = test system: NCI-H2023
Summary of the method: (§1)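 After 5 days of treatment, lung cancer cells in 1536-well plates were fixed and stained in a single step (final 0.05% Triton X-100, 1% formaldehyde, 1 ug/ml Hoechst) and their nuclei counted on 4× images. Treatment had been applied by pin tool the day after seeding as one drug alone or as a fixed anchor-drug dose with five library-drug doses (not always all listed) in √10 steps. Relative viability is the nuclei count of treated wells divided by that of vehicle wells, and values are medians of duplicate plates.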

NCI-H2085 = test system: NCI-H2085
Summary of the method: as §1

NCI-H2126 = test system: NCI-H2126
Summary of the method: as §1

NCI-H2342 = test system: NCI-H2342
Summary of the method: as §1

NCI-H2347 = test system: NCI-H2347
Summary of the method: as §1

NCI-H322M = test system: NCI-H322M
Summary of the method: as §1

NCI-H647 = test system: NCI-H647
Summary of the method: as §1

NCI-H661 = test system: NCI-H661
Summary of the method: as §1

NCI-H727 = test system: NCI-H727
Summary of the method: as §1

PC-14 = test system: PC-14
Summary of the method: as §1

SK-LU-1 = test system: SK-LU-1
Summary of the method: as §1

SW 1573 = test system: SW 1573
Summary of the method: as §1

**Q.** With `NC(=O)Nc1cc(-c2cccc(F)c2)sc1C(=O)N[C@H]1CCCNC1` [AZD7762] + COc1cc2c(Oc3ccc(NC(=O)C4(C(=O)Nc5ccc(F)cc5)CC4)cc3F)ccnc2cc1OCCCN1CCOCC1 [Foretinib] (partner 0.25 µM) as the compound, how does the relative viability (NCI-H2023; first compound 0.1 µM) read?
**A.** 0.652

**Q.** What about the relative viability (NCI-H2023; first compound 0.3162 µM) of the same compound?
**A.** 0.393

**Q.** And the relative viability (NCI-H2023; first compound 1 µM)?
**A.** 0.098

**Q.** And the relative viability (NCI-H2085; first compound 0.01 µM)?
**A.** 0.946

**Q.** What about the relative viability (NCI-H2085; first compound 0.03162 µM) of the same compound?
**A.** 0.938

**Q.** What about the relative viability (NCI-H2085; first compound 0.1 µM) of the same compound?
**A.** 0.865

**Q.** What about the relative viability (NCI-H2085; first compound 0.3162 µM) of the same compound?
**A.** 1.21

**Q.** What about the relative viability (NCI-H2085; first compound 1 µM) of the same compound?
**A.** 0.697

**Q.** What about the relative viability (NCI-H2126; first compound 0.01 µM) of the same compound?
**A.** 1.23

**Q.** And the relative viability (NCI-H2126; first compound 0.03162 µM)?
**A.** 1.19

**Q.** And the relative viability (NCI-H2126; first compound 0.1 µM)?
**A.** 1.2

**Q.** And the relative viability (NCI-H2126; first compound 0.3162 µM)?
**A.** 1.28

**Q.** What about the relative viability (NCI-H2126; first compound 1 µM) of the same compound?
**A.** 1.26

**Q.** What about the relative viability (NCI-H2342; first compound 0.01 µM) of the same compound?
**A.** 0.992

**Q.** What about the relative viability (NCI-H2342; first compound 0.03162 µM) of the same compound?
**A.** 1.14

**Q.** And the relative viability (NCI-H2342; first compound 0.1 µM)?
**A.** 1.09

**Q.** What about the relative viability (NCI-H2342; first compound 0.3162 µM) of the same compound?
**A.** 1.1

**Q.** And the relative viability (NCI-H2342; first compound 1 µM)?
**A.** 1.25

**Q.** What about the relative viability (NCI-H2347; first compound 0.01 µM) of the same compound?
**A.** 1.55

**Q.** What about the relative viability (NCI-H2347; first compound 0.03162 µM) of the same compound?
**A.** 0.791

**Q.** And the relative viability (NCI-H2347; first compound 0.1 µM)?
**A.** 0.767

**Q.** What about the relative viability (NCI-H2347; first compound 0.3162 µM) of the same compound?
**A.** 0.616

**Q.** And the relative viability (NCI-H2347; first compound 1 µM)?
**A.** 0.51

**Q.** And the relative viability (NCI-H322M; first compound 0.01 µM)?
**A.** 0.979

**Q.** What about the relative viability (NCI-H322M; first compound 0.03162 µM) of the same compound?
**A.** 1.09

**Q.** And the relative viability (NCI-H322M; first compound 0.1 µM)?
**A.** 1.09

**Q.** And the relative viability (NCI-H322M; first compound 0.3162 µM)?
**A.** 0.601

**Q.** And the relative viability (NCI-H322M; first compound 1 µM)?
**A.** 0.315

**Q.** What about the relative viability (NCI-H647; first compound 0.01 µM) of the same compound?
**A.** 1.23

**Q.** What about the relative viability (NCI-H647; first compound 0.03162 µM) of the same compound?
**A.** 1.32

**Q.** What about the relative viability (NCI-H647; first compound 0.1 µM) of the same compound?
**A.** 1.23

**Q.** And the relative viability (NCI-H647; first compound 0.3162 µM)?
**A.** 1.19

**Q.** And the relative viability (NCI-H647; first compound 1 µM)?
**A.** 0.326

**Q.** And the relative viability (NCI-H661; first compound 0.01 µM)?
**A.** 1.08

**Q.** And the relative viability (NCI-H661; first compound 0.03162 µM)?
**A.** 1.1

**Q.** What about the relative viability (NCI-H661; first compound 0.1 µM) of the same compound?
**A.** 1.12

**Q.** What about the relative viability (NCI-H661; first compound 0.3162 µM) of the same compound?
**A.** 1.03

**Q.** What about the relative viability (NCI-H661; first compound 1 µM) of the same compound?
**A.** 0.598

**Q.** And the relative viability (NCI-H727; first compound 0.01 µM)?
**A.** 0.989

**Q.** What about the relative viability (NCI-H727; first compound 0.03162 µM) of the same compound?
**A.** 0.804

**Q.** What about the relative viability (NCI-H727; first compound 0.1 µM) of the same compound?
**A.** 0.728

**Q.** What about the relative viability (NCI-H727; first compound 0.3162 µM) of the same compound?
**A.** 0.889

**Q.** And the relative viability (NCI-H727; first compound 1 µM)?
**A.** 0.466

**Q.** And the relative viability (PC-14; first compound 0.01 µM)?
**A.** 1.04

**Q.** What about the relative viability (PC-14; first compound 0.03162 µM) of the same compound?
**A.** 0.927

**Q.** And the relative viability (PC-14; first compound 0.1 µM)?
**A.** 0.973

**Q.** And the relative viability (PC-14; first compound 0.3162 µM)?
**A.** 0.885

**Q.** What about the relative viability (PC-14; first compound 1 µM) of the same compound?
**A.** 0.361

**Q.** And the relative viability (SK-LU-1; first compound 0.01 µM)?
**A.** 1.01

**Q.** And the relative viability (SK-LU-1; first compound 0.03162 µM)?
**A.** 0.737

**Q.** And the relative viability (SK-LU-1; first compound 0.1 µM)?
**A.** 0.461

**Q.** And the relative viability (SK-LU-1; first compound 0.3162 µM)?
**A.** 0.185

**Q.** And the relative viability (SK-LU-1; first compound 1 µM)?
**A.** 0.145

**Q.** And the relative viability (SW 1573; first compound 0.01 µM)?
**A.** 0.845

**Q.** And the relative viability (SW 1573; first compound 0.03162 µM)?
**A.** 0.866

**Q.** What about the relative viability (SW 1573; first compound 0.1 µM) of the same compound?
**A.** 0.99

**Q.** And the relative viability (SW 1573; first compound 0.3162 µM)?
**A.** 1.12

**Q.** What about the relative viability (SW 1573; first compound 1 µM) of the same compound?
**A.** 1.02
